The nature of this series: Octenidine extractable from impregnated hydrophilic polyurethane foam, no surfactant. Format: physicochemical. As to conditions: for Release % water: 24 h extraction in water, UV 285 nm. The method, then: Discs of hydrophilic polyurethane foam were impregnated by applying a known volume of octenidine-containing solution to the surface of the foam and letting it soak into the foam matrix in a liquid:foam ratio which allowed the foam to be saturated with liquid. Afterwards, the impregnated foam was dried at RT overnight.
The dried foam disc was immersed in the extraction media for 24 h and the extracted octenidine concentration was determined by UV at 285 nm

SMILES strings stand for the structures.

On to `CCCCCCCCN=c1ccn(CCCCCCCCCCn2ccc(=NCCCCCCCC)cc2)cc1` [Octenidine, octenidine], for which the “Release % phosphate buffer (23 mM)” value (plain foam impregnated with 0.1 w % OCT solution, 24 h extraction) is recorded as 7%. Also, the Release % water worked out at 5% (plain foam impregnated with 0.1 w % OCT solution), 1.5% (plain foam impregnated with 0.5 w % OCT solution) and 1.5% (plain foam impregnated with 1.0 w % OCT solution).

Source of the values: patent publication US20210113733A1, “FIBROUS WOUND DRESSING COMPRISING AN ANTISEPTIC” (Coloplast A/S, priority 2018, published 2021).
